The results in this text go back to ChEMBL document CHEMBL1201862, “PubChem BioAssay data set” (2004).

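Cultured in 96-well plates, cells were exposed to test compound for 48 hours across five concentrations. GI50 = concentration required for 50% inhibition of growth.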 Active and inactive are the calls of the source. Rule as the data show it: active = GI50 up to about 1.1 µM and inactive = higher.

Common to all, as to assay: NCI-60 cell line screen, 48 h
Test [1] concerns HL-60.
The test system of test [2] is OVCAR-4.
Test [3] relates to HOP-92.
Test [4] relates to SF-295.
Test [5] relates to SF-539.
For test [6], the system named is LOX IMVI.
Test [7] deals with PC-3.
Test [8] concerns EKVX.
For test [9], the system named is SNB-75.
Test [10] has as its system NCI-H23.
Test [11] has as its system Malme-3M.
Test [12] concerns M14.
The subject of test [13] is MCF7.
The test system of test [14] is UACC-62.
For test [15], the system named is CCRF-CEM.
Test [16] concerns TK-10.
The test system of test [17] is U-251.
The test system of test [18] is SR.
The subject of test [19] is UO-31.
The test system of test [20] is CAKI-1.

Consider `CCCCc1ccc(Nc2nc(S)c3ncn(COCCO)c3n2)cc1`, for which the GI50 in [1] was 25.2 µM (inactive); in test [2], 45.4 µM (inactive); in test [3] it was 27.4 µM (inactive); in test [4], 64.7 µM (inactive); in [5] it was > 100 µM (inactive); in [6] it was 27.4 µM (inactive). Further, the GI50 was 32.9 µM (inactive) in [7]; 60.5 µM (inactive) in [8]; 41 µM (inactive) in test [9]; 34.4 µM (inactive) in test [10]; 23.3 µM (inactive) in [11]; 44.4 µM (inactive) in test [12]. The GI50 in [13] was 24.2 µM (inactive); in test [14] it was 41.4 µM (inactive); in [15] it was 25.7 µM (inactive); in test [16] it was 66.2 µM (inactive); in [17], 35 µM (inactive); in test [18], 24 µM (inactive). For the same molecule, the GI50 in test [19] and in [20] was > 100 µM (inactive) each time.
Turning to `CCC/C(Cl)=N/OC(=O)Nc1cc(C(F)(F)F)ccc1OC`, the GI50 is 1.77 µM (inactive) in test [1]; 3.23 µM (inactive) in test [2]; 2.43 µM (inactive) in test [3]; 18.3 µM (inactive) in [4]; 15.3 µM (inactive) in [5]; 4.46 µM (inactive) in test [6]. In addition, the GI50 in test [7] is 16.2 µM (inactive); in test [8], 7.24 µM (inactive); in [9] it was 15.1 µM (inactive); in test [10], 18.7 µM (inactive); in test [11], 2.92 µM (inactive); in [12], 4.4 µM (inactive). The GI50 in test [13] was 12.4 µM (inactive); in test [14], 15.2 µM (inactive); in test [15] it was 1.91 µM (inactive); in test [16], 18.5 µM (inactive); in [17] it was 17.7 µM (inactive); in [18], 2.79 µM (inactive). Moreover, the GI50 is 16.4 µM (inactive) in [19] and 4.78 µM (inactive) in [20].
Consider `C(=N/NC1=NCCN1)/c1c2ccccc2c(/C=N\NC2=NCCN2)c2ccccc12`, for which the GI50 in test [1] is 0.0528 µM (active); in [2], 0.302 µM (active); in test [3] it was 0.0731 µM (active); in test [4], 0.383 µM (active); in test [5], 0.1 µM (active); in [6], 0.0931 µM (active). Besides, the GI50 in test [7] was 0.0687 µM (active); in test [8] it was 0.149 µM (active); in test [9], 0.0735 µM (active); in test [10], 0.129 µM (active); in test [11] it was 0.16 µM (active); in [12], 0.171 µM (active). In addition, the GI50 in [13] is 0.0568 µM (active); in [14] it was 0.0902 µM (active); in [15], 0.0408 µM (active); in test [16] it was 1.03 µM (active); in [17], 0.061 µM (active); in test [18], 0.00879 µM (active). In addition, the results for the GI50 in test [19] and in test [20] were 9.44 µM (inactive) and 0.526 µM (active), respectively.
Regarding `C=CC(=O)C#Cc1cnc(OC)nc1OC`, the GI50 was 1.09 µM (active) in test [1]; 20.8 µM (inactive) in [2]; 1.39 µM (inactive) in [3]; 41.4 µM (inactive) in test [4]; 13.3 µM (inactive) in [5]; 5.46 µM (inactive) in test [6]. The GI50 in [7] is 19.8 µM (inactive); in test [8] it was 24.4 µM (inactive); in [9], 12.6 µM (inactive); in test [10], 17.5 µM (inactive); in test [11] it was 15.8 µM (inactive); in test [12] it was 14.9 µM (inactive). Moreover, the GI50 in test [13] was 5.13 µM (inactive); in [14], 16.1 µM (inactive); in test [15], 0.515 µM (active); in test [16] it was 15.6 µM (inactive); in [17], 13.9 µM (inactive); in test [18], 2.49 µM (inactive). Besides, the figures for the GI50 in [19] and in test [20] were 16.9 µM (inactive) and 7.29 µM (inactive), respectively.
Regarding `CCCCCCCCCc1cc(O)c(O)cc1CCCCCCCCC`, the GI50 in test [1], in test [2], in test [3], in [4], in test [5] and in test [6] was > 10 µM (inactive) in each case. In addition, the GI50 in test [7], in test [8], in test [9], in [10], in test [11] and in test [12] was > 10 µM (inactive) each time. Besides, the GI50 in test [13], in test [14], in [15], in test [16], in [17] and in [18] was > 10 µM (inactive) in each case. Besides, the GI50 in [19] and in test [20] was > 10 µM (inactive) throughout.
On to `COc1ccc2c(c1)CCCN2S(=O)(=O)c1ccccc1[N+](=O)[O-]`, for which the GI50 was 4.56 µM (inactive) in test [1]; 45.7 µM (inactive) in test [2]; 42.6 µM (inactive) in test [3]; 30.5 µM (inactive) in test [4]; 27.7 µM (inactive) in test [5]; 32.4 µM (inactive) in [6]. The GI50 is 34.9 µM (inactive) in test [7]; 56 µM (inactive) in [8]; 24.1 µM (inactive) in [9]; 46.2 µM (inactive) in test [10]; 40.8 µM (inactive) in [11]; 40.8 µM (inactive) in test [12]. In addition, the GI50 is 21.6 µM (inactive) in test [13]; 47.8 µM (inactive) in test [14]; 33.7 µM (inactive) in [15]; 54.8 µM (inactive) in test [16]; 24.3 µM (inactive) in [17]; 11.1 µM (inactive) in [18]. Besides, the figures for the GI50 in [19] and in test [20] were 43 µM (inactive) and > 89.5 µM (inactive), respectively.
Consider `Cc1cccc(Nc2nc3ccccc3nc2NS(=O)(=O)c2ccc(N)cc2)c1`, for which the GI50 in test [1] was 28.1 µM (inactive); in test [2], 10 µM (inactive); in test [3], 40.3 µM (inactive); in test [4], 34.8 µM (inactive); in test [5], 19.1 µM (inactive); in test [6], 52.1 µM (inactive). Further, the GI50 in test [7] is 29.6 µM (inactive); in [8] it was 54.3 µM (inactive); in [9], 52.8 µM (inactive); in test [10], 5.61 µM (inactive); in test [11], 78.7 µM (inactive); in test [12], 37.8 µM (inactive). Moreover, the GI50 is 24.4 µM (inactive) in [13]; 38.4 µM (inactive) in test [14]; 15.2 µM (inactive) in test [15]; 32.5 µM (inactive) in [16]; 20.7 µM (inactive) in [17]; 19.8 µM (inactive) in test [18]. Besides, the GI50 is 16.2 µM (inactive) in [19] and 30.7 µM (inactive) in test [20].
As for `CCOC(=O)c1nc2ccccc2nc1Nc1ccc(F)cc1`, the GI50 is > 100 µM (inactive) in [1]; > 100 µM (inactive) in test [2]; 15.7 µM (inactive) in test [3]; 12.9 µM (inactive) in test [4]; 14.2 µM (inactive) in [5]; 79.4 µM (inactive) in test [6]. Besides, the GI50 was > 86.9 µM (inactive) in test [7]; 16.5 µM (inactive) in test [8]; 3.52 µM (inactive) in [9]; 20.8 µM (inactive) in [10]; > 100 µM (inactive) in test [11]; > 100 µM (inactive) in [12]. Also, the GI50 was > 60.8 µM (inactive) in [13]; > 100 µM (inactive) in test [14]; > 100 µM (inactive) in test [15]; 30.6 µM (inactive) in test [16]; 18.8 µM (inactive) in [17]; > 100 µM (inactive) in [18]. Besides, the figures for the GI50 in test [19] and in test [20] were > 94.4 µM (inactive) and 39.5 µM (inactive), respectively.
Consider `Cc1ccnc2nc(-c3ccc(F)cc3)cc(O)c12`, for which the GI50 in test [1] was 5.97 µM (inactive); in [2], 77.6 µM (inactive); in test [3] it was 51.1 µM (inactive); in test [4], 86.3 µM (inactive); in test [5] it was 57.3 µM (inactive); in test [6], 26.2 µM (inactive). The GI50 in [7] is > 80.4 µM (inactive); in [8] it was 79.6 µM (inactive); in test [9], 29.6 µM (inactive); in test [10] it was 75.7 µM (inactive); in test [11], 92.7 µM (inactive); in test [12] it was 28.4 µM (inactive). Further, the GI50 is 24.5 µM (inactive) in test [13]; 16 µM (inactive) in test [14]; 75.9 µM (inactive) in [15]; > 97.3 µM (inactive) in [16]; 38 µM (inactive) in test [17]; 3.82 µM (inactive) in [18]. Further, the GI50 was > 70.5 µM (inactive) in test [19] and 36.2 µM (inactive) in test [20].
In the case of `COc1ccc2[nH]c3c(C)c4c(c(C)c3c2c1)CN(C)C=C4`, the GI50 was 22.4 µM (inactive) in [1]; 3.95 µM (inactive) in [2]; 2.79 µM (inactive) in test [3]; 0.293 µM (active) in test [4]; 0.366 µM (active) in test [5]; 9.77 µM (inactive) in test [6]. For the same molecule, the GI50 is 11.5 µM (inactive) in test [7]; 2.49 µM (inactive) in [8]; 0.226 µM (active) in test [9]; 0.424 µM (active) in test [10]; 1.21 µM (inactive) in [11]; 8.77 µM (inactive) in test [12]. Also, the GI50 in [13] was 4.53 µM (inactive); in [14], 3.3 µM (inactive); in [15] it was 3.76 µM (inactive); in test [16], 15.1 µM (inactive); in test [17], 0.219 µM (active); in [18] it was 0.526 µM (active). The GI50 is 24.5 µM (inactive) in test [19] and 9.23 µM (inactive) in test [20].
